Measured values reported in patent US20010025105A1, “Certain substituted 1-aryl-3-piperazine-1'-yl propanones” (Molecular Geriatarics Corporation, priority 1997, published 2001).
Where a name gives a salt, the structure may show the parent alone.

Columns and labels:
[1] = system: TG3 immunoreactivity in OKA treated MSN1a cells; test: MSN1a cell culture model, ELISA with TG3 antibody, okadaic acid treated cells; format: cell-based, human; settings: Homo sapiens, 1 μM OKA, 2 hrs at 37° C., read-out: IC50 for inhibition of TG3 immunoreactivity in OKA treated MSN1a cells
Description: This assay can thus be used to determine whether a drug is capable of preventing or intervening in AD by attenuating the production of abnormally phosphorylated paired helical filament epitopes associated with AD. To determine whether a drug is capable of preventing or intervening in AD activity, the MSN1a cells containing tau and associated proteins are treated with OKA capable of greatly increasing immunoreactivity of the MSN1a cells with AD specific monoclonal antibodies. Then, either prior to or concomitantly with OKA treatment, a compound of the present invention is added to the culture. If the compound prevents the induction of the AD epitopes in the MSN1a cells treated with OKA, then it is said to have anti-AD activity. If the AD-specific antibodies are highly reactive with the neuroblastoma cells following OKA treatment in the presence of compound, then the compound is said to be ineffectual against AD.
The MSN1a human neuroblastoma line was subcloned from a population of MSN cells obtained from the laboratory of Dr. Peter Davies (Albert Einstein College of Medicine, New York, N.Y.). Cells were grown and maintained in flasks in RPMI 1640 medium, supplemented with 15% fetal calf serum, 100 U/ml penicillin, 100 U/ml Streptomycin, 0.5 ug/ml fungizone under 7.5% CO2 at 37° C.
Stock solutions of drugs were prepared by dissolving the anhydrous powders to final concentrations of either 10 or 20 mM in 50% aqueous or 100% dimethyl sulfoxide (DMSO), respectively. Working solutions of drugs were prepared by dilution of the stock solutions with Kreb's Ringer in Hepes buffer (KRH) (128 mM NaCl, 5 mM KCl, 2.5 mM CaCl2 1.2 mM MgSO4, 1 mM Na2HPO4, 10 mM dextrose, 20 mM Hepes, pH 7.4). OKA is maintained as a 1 mM stock solution in DMSO prior to dilution to 4 μM in KRH.
MSN cells grown in 225 cm^2 flasks are removed from the incubator, their medium decanted and replaced with 50 ml pre-warmed KRH. The cells are harvested by scraping prior to sedimentation at 1000 rpm for 5 min. The supernatants are discarded and the cell pellets are resuspended, the cells counted and diluted to a density of 2×10^4 cells/[…]. The cells are then plated in a 96 well plate at 50 μl/well and 25 μl of 4 μM OKA and 25 μl of drug are then added to the appropriate wells; the entire 96 well plate is then incubated for 2 hrs at 37° C. Depending on the dilution of drug added, this yields individual wells containing 1 μM OKA, 0-64 μM drug and 2×10^4 cells in 0.26% DMSO in KRH. The incubation is terminated by the addition of 20 μl of 6X extraction buffer and immediate freezing at −80° C. for at least one hr. The 6X extraction buffer contains: 25 mM Tris-HCl, pH 7.6, 150 mM NaCl, 5 mM EDTA, 24 mM β-glycerol phosphate, 10 μg/ml APMSF (4-amidinophenylmethane-sulfonyl flouride), and 2.5 μg/ml each of leupeptin, aprotinin, and pepstatin. The plates are thawed in a 37° C. water bath and 20 μl of cell lysate is added to a replica well in an ELISA plate that already contains 80 μl of coating buffer (15 mM Na2CO3 and 35 mM NaHCO3, pH 9.6). The plates are allowed to coat overnight at 4° C. The plates are washed four times with deionized water and then blocked for 30 min at 37° C. with 200 μl/well pre-warmed 1% bovine serum albumin in 10 mM Tris-HCl, pH 7.4, 150 mM NaCl, 3 mM NaN3 (BSA-TBS). After the blocking solution is removed, 100 μl/well of an appropriate dilution of pre-warmed primary antibody (eg., TG3 or PHF-1) in BSA-TBS is added and incubated at 37° C. for 30 min. Incubation is terninated by washing four times in deionized water at which time 100 μl of an appropriate dilution of pre-warmed secondary antibody (conjugated to alkaline phosphatase) in BSA-TBS is added to each well in the ELISA plate. Incubation is performed for 30 min at 37° C. followed by washing 4 times with deionized water. […] of prewarmed chromogenic substrate (1 mg/mnl p-nitrophenyl phosphate in 10% diethanolamine, 3 mM NaN3, 0.5 mM MgCl2, pH 9.8) is added and the plate incubated for 30 min at 37° C. […]

Candida albicans SRI 523 = test: Agar disc diffusion assay; format: cell-based; settings: 240 ug/disc, about 24 hr at 37° C.
Description: (§1) The activity of the compounds is determined using the following assay. The compound is dissolved in DMSO at a concentration of 6 mg/ml and then diluted with water to a final concentration of 3 mg/ml in 50% DMSO (% DMSO was shown not to be inhibitory to the test organisms). An aliquot (0.08 ml) of each drug solution was transferred to filter paper discs (12.7 mm diameter, Scmeicherand Schuell) for use in the agar diffusion assay. The concentration of each drug on the filter paper disc was 240 ug/disc. The test organisms included the following: Gram-positive aerobes (Staphylococcus aureus SRI 1323, Streptococcus pneumoniae SRI 1167); Gram-negative aerobe (Proteus vulgaris SRI 180); and the yeast Candida albicans SRI 523. An agar disc diffusion assay was used to evaluate the antimicrobial activity of the test compounds. Briefly, cultures were prepared from 16-20 hr agar slant cultures by inoculating in physiological saline to a turbidity equivalent to a #0.5 McFarland turbidity standard for the bacteria and a #3 McFarland standard for C. albicans. The surface of Mueller-Hinton agar (15×100 mm plates, mm) were evenly inoculated with each standardized culture using a cotton swab. Filter paper discs containing the drug concentration listed above were then placed on the inoculated agar plates along with a disc containing the solvent used to dissolve each drug. The plates were incubated at 37° C. for about 24 hr and the diameters of the zones of inhibition measured with a vernier caliper. Positive control drugs consisted of streptomycin for use with the bacterial strains and 5-fluorocytosine for use with C. albicans. The positive control drugs were assayed as described above for the compounds of the present invention using the same concentration.

Proteus vulgaris SRI 180 = test: Agar disc diffusion assay; format: cell-based; settings: 240 ug/disc, about 24 hr at 37° C., 0 = no measurable zone
Description: as §1

[2] = system: Streptococcus pneumoniae SRI 1167; test: Agar disc diffusion assay; format: cell-based; settings: 240 ug/disc, about 24 hr at 37° C., + = zone too large to measure
Description: as §1

[3] = system: Staphylococcus aureus SRI 1323; test: Agar disc diffusion assay; format: cell-based; settings: 240 ug/disc, about 24 hr at 37° C.
Description: as §1

[4] = system: paired helical filament epitopes in MSN1a cells; test: Western blot of PHF-1 immunoreactivity in lysates of MSN1a cells; format: cell-based, human; settings: 100 μM chlorpromazine, 2 hours at 37° C.
Description: These compounds are effective at micromolar concentrations, with increased potency being evident when cells are treated prior to the addition of okadaic acid. The effective concentrations appear to be in the range at which these drugs are present in the brain following chronic treatment of psychiatric patients (Svendsen, C N, Psychopharnacology, 90, 316-321, 1986). […] The cells were isolated by centrifugation, boiled for 10 minutes and […] protein from the resulting heat stable supernatants were loaded per lane on an SDS-PAGE gel. The gel was electrophoretically transferred to nitrocellulose membrane and then immnunostained with PHF-1. […] The use of the MSN1a cell culture model for screening of novel compounds for therapeutic activity in AD is, therefore, quite warranted.

[5] = system: PHF epitope levels in human brain tissue; test: Retrospective study of autopsy brain tissue of chronically treated patients, ALZ-EIA method; format: in vivo; settings: frontal (Broadman area 10) and temporal (Broadman area 38) regions, FIGS. 4A and 4B
Description: Frontal and cortical brain tissue specimens obtained at autopsy from patients chronically treated with chlorpromazine were analyzed using the ALZ-EIA method previously described (Ghanbari, H A, et al, JAMA, 263, 2907, 1990). […] The brain tissue (post-mortem) from approximately the same number of (age matched) normal controls and Alzheimer's Disease patients were also analyzed and are presented in these figures as negative and positive controls (for normal and AD, respectively). […] Bick, K L. Raven Press, New York, 1994).

[6] = system: PHF epitopes in human brain tissue; test: Retrospective study of autopsy brain tissue of chronically treated patients, direct ELISA using TG3 antibody; format: in vivo; settings: N 51, sum of absorbance readings for 8 dilutions
Excerpt: In a subsequent study, 51 additional patients were identified and the analysis was repeated as above using the TG3 antibody in an ELISA format.

[7] = system: microtubule cytoskeleton of human CG neuroblastoma cells; test: Antimicrotubule activity, tubulin immunofluorescence microscopy; format: cell-based; settings: 2 hr at 37° C., read-out: Concentration where microtubule destabilization occurs
Description: The compounds of the invention according to formula I are effective in destabilizing microtubules, thus are useful in treating certain neoplastic diseases. Indirect immunofluorescence microscopy using the monoclonal antibodies to tubulin is used herein to determine the activity of the compounds of this invention in promoting depolymerization of the microtubule cytoskeleton in cultured cells. The following assay was employed.
Cultured human CG neuroblastoma cells were seeded 1:3 from confluent cultures onto sterile 11×22 mm coverslips in 6 well tissue culture plates 16 hr prior to treatment. The following day, the tissue culture medium is removed and the cells are exposed to various concentrations of compounds of this invention in Krebs Ringer Hepes (KRH) buffer containing a final concentration of 0.5% DMSO as carrier. Incubations were performed at 37° C. in a humidified 5% CO2 atmosphere for 2 hr. After incubation, the cells were fixed in 3% TEM grade formaldehyde in PBS for 45 min at room temperature.
To visualize the effects of the compounds of the invention on the microtubule cytoskeleton, the cells were processed for tubulin immunofluorescence. Briefly, the cells were permeabilized in 0.5% Triton-X 100 in PBS for 5 min. The cells were washed 2× with PBS and aldehydes reduced using 0.5 mg/ml NaBH4 in PBS for 5 min. Subsequently, the cells were blocked for 10 min in 1.5% BSA and 1.5% nonfat dry milk in PBS (blocking solution, BS) for 10 min. The cells were then incubated for 30 min at 37° C. with the monoclonal antibody Tu27B which recognizes b-tubulin (dilution 1:20 in BS). Subsequently, the cells were washed 2× in PBS and once in BS. The cells were then incubated for 30 min at 37° C. with sheep antimouse IgG conjugated to FITC. After incubation, the cells were washed 2× in PBS and once in BS and incubated for 30 min at 37° C. with rabbit antisheep IgG conjugated to FITC. The cells were rinsed in PBS, counterstained with Hoechst 33285 in PBS (1 μg/ml), and rinsed in PBS. The coverslips were mounted in 9:1 glycerol:PBS containing 1 mg/ml p-phenylenediamine and sealed with nail polish.
The cells were viewed using a Jenalumar epifluorescence microscope equipped with the proper filters for Fluorescein Isothiocyanate (FITC) excitation and emission. Lack of effect of a compound is evidenced by the presence of an intact microtubule network in interphase cells, or a mitotic spindle in dividing cells. Antineoplastic compounds of the invention at effective doses result in the disappearance of microtubules in both interphase and mitotic cells.

SMILES | IC50 [1] [µM] | zone of inhibition at 240 µg/disc (Candida albicans SRI 523; Candida albicans, SRI523, read-out: Diameter of the zone of inhibition, C. albicans) [mm] | zone of inhibition at 240 µg/disc (Proteus vulgaris SRI 180; Proteus vulgaris, SRI180, read-out: Diameter of the zone of inhibition, P. vulgaris) [mm] | zone of inhibition at 240 µg/disc ([2]; Streptococcus pneumoniae, SRI1167, read-out: Diameter of the zone of inhibition, S. pneumoniae) [mm] | zone of inhibition at 240 µg/disc ([3]; Staphylococcus aureus, SRI1323, read-out: Diameter of the zone of inhibition, S. aureus) [mm] | production of paired helical filament epitopes (PHF-1 immunoreactivity, western blot) ([4]; FIG. 3) | production of paired helical filament epitopes (PHF-1 immunoreactivity, western blot) ([4]; FIG. 3, listed as CPZ) | PHF epitope levels (ALZ-EIA) [5] | SIGNAL ± SEM Frontal ([6]; post-mortem frontal brain tissue) | SIGNAL ± SEM Temporal ([6]; post-mortem temporal brain tissue) | minimal effective concentration [7] [µM] | Diameter of the zone of inhibition, C. albicans (Candida albicans SRI 523) [mm] | Diameter of the zone of inhibition, P. vulgaris (Proteus vulgaris SRI 180) [mm] | Diameter of the zone of inhibition, S. pneumoniae [2] [mm] | Diameter of the zone of inhibition, S. aureus [3] [mm]
O=C(CCN1CCN(Cc2ccccc2)CC1)c1nccs1 [Example 76, 1-(2-Thiazolyl)-3-(4′-benzyl-1′-piperazinyl)-1-propanone dihydrochloride] | 10.5 | 20.9 | 20.5 | 35.5 | 19.3 |  |  |  |  |  |  |  |  |  | 
CN(C)CCCN1c2ccccc2Sc2ccc(Cl)cc21 [Chlorpromazine, chlorpromazine] | ~70 |  |  |  |  | markedly inhibit the expression of PHF epitopes | greatly decreased the production of paired helical filament epitopes | low PHF epitope levels similar to normal controls | 0.12 ± 0.11 | 0.16 ± 0.11 |  |  |  |  | 
Cl.Cl.O=C(CCN1CCN(Cc2ccccc2)CC1)c1ccc([N+](=O)[O-])cc1 [Example 5] |  |  |  |  |  |  |  |  |  |  | 4 | 17.6 | 17.3 | 29.9 | 22.8
